Experimental data taken from PMC6160541 (Frontiers in Chemistry, 2018).

Key:
MCF-7 cells = test: MTT cytotoxicity with GLUT1 inhibitors (EDG, phloretin) and OCT2 inhibitor (Ctd.) in MCF-7 cells; type: cell-based, human; settings: MCF-7
Protocol: For cytotoxicity assays, the GLUT1 inhibitors EDG (1) and phloretin (2), the OCT2 inhibitor Ctd. (cimetidine) (3), and the mixture of EDG and Ctd.(4) were selected to undergo a similar procedure as antitumor activity in vitro. MCF-7 cells were seeded on a 96 well plate in 100 μL of RPMI and were incubated for 24 h at 37°C, and EDG-containing RPMI medium, phloretin-containing RPMI medium and Ctd.-containing RPMI medium were used to render the serial dilution of the concentrated solutions of the platinum compounds, and 100 μL/well was added (resulting in final inhibitor concentrations of 75 mM, 100 μM and 3 mM). The cytotoxicity profiles of the compounds were evaluated using MTT assay. […]
(§1) In Vitro Cellular Cytotoxicity Assays
(§2) Cells seeded in 96-well plates were incubated in a 5% CO2 atmosphere in 100 µL of complete medium at 37 ℃ for 24 h. Then, 100 µL of freshly prepared culture medium containing drugs at different concentrations was added and incubated for another 48 h.
MTT (5 mg/mL, 20 µL) was added and incubated for 3 h. Finally, the medium was removed, and DMSO (150 µL) was added. The absorbance was measured at 570 nm using a Bio-Rad 680 microplate reader. The IC50 values were calculated using GraphPad Prism software. Technical repetitions and independent experiments were based on three […]
For cytotoxicity assays using the GLUT1 inhibitor 4,6-O-ethylidene-α-D-glucose (EDG), phloretin and the OCT2 inhibitor Ctd., a similar procedure as described above was followed except that MCF-7 cells (3500 cells/well) were seeded on a 96 well plate in 100 µL of RPMI and incubated for 24 h at 37 °C. EDG, phloretin and Ctd. containing RPMI medium were used for serial dilution of the concentrated solutions of the platinum compounds, and 100 µL/well were added (resulting in final inhibitor concentrations of 75 mM, 100 µM and 3 mM, respectively). The cytotoxicity profiles of the compounds were evaluated using the MTT assay. […]

LNCaP = test: MTT cytotoxicity assay, LNCaP; type: cell-based, human; settings: 48 h
Protocol: (§3) We evaluated the cytotoxicity of 1c-6c, 1d-7d and of the positive control 1a-5a against a panel of human cancer cells using MTT (3-(4,5-dimethylthiazol-2-yl)-2,5-diphenyltetrazolium bromide) assay. The IC50 values were calculated based on three parallel experiments.
(§4) Cisplatin and oxaliplatin were purchased from Yurui Chemical Co. Ltd. (Shanghai, China). All of the other chemicals were obtained from commercial suppliers, such as Alfa […]
(§5) IonSpec QFT mass spectrometer with ESI ionization. 3-(4,5-dimethylthiazol-2-yl) […]
(§6) Phosphate-buffered saline (PBS) contains 137 mM
(§7) NaCl, 2.7 mM KCl, 10 mM Na2HPO4 and 2 mM KH2PO4. Fetal bovine serum (FBS), 0.25% trypsin/EDTA solution, and penicillin-streptomycin solution were purchased from […]
(§8) Invitrogen (Grand Island, NY, USA). […]
(§9) HeLa (cervical carcinoma cell line), MCF-7 (breast gland adenocarcinoma), LNCaP and PC3 (prostatic cancer), HepG-2 (hepatocellular carcinoma), A549 and A549R (lung carcinoma) were used for the MTT […]
as §1, §2
(§10) MTT (5 mg/mL, 20 µL) was added and incubated for 3 h. Finally, the medium was removed, and DMSO (150 µL) was added. The absorbance was measured at 570 nm using a Bio-Rad 680 microplate reader. The IC50 values were calculated using GraphPad […]
(§11) Prism software. […]

MCF-7 = test: MTT cytotoxicity assay, MCF-7; type: cell-based, human; settings: 48 h
Protocol: as §3, §4, §5, §6, §7, §8, §9, §1, §2, §10, §11

HeLa = test: MTT cytotoxicity assay, HeLa; type: cell-based, human; settings: 48 h
Protocol: as §3, §4, §5, §6, §7, §8, §9, §1, §2, §10, §11

HepG-2 = test: MTT cytotoxicity assay, HepG-2; type: cell-based, human; settings: 48 h
Protocol: as §3, §4, §5, §6, §7, §8, §9, §1, §2, §10, §11

A549R = test: MTT cytotoxicity assay, A549R (cisplatin-resistant); type: cell-based, human; settings: for IC50: MTT, 48 h
Protocol: as §3, §4, §5, §6, §7, §8, §9, §1, §2, §10, §11

PC3 = test: MTT cytotoxicity assay, PC3; type: cell-based, human; settings: 48 h
Protocol: as §3, §4, §5, §6, §7, §8, §9, §1, §2, §10, §11

human cancer cells = test: MTT cytotoxicity, summary over panel of human cancer cells; type: cell-based; settings: range over A549R, LnCaP, PC3
Protocol: as §3
Scheme 9. Synthetic route of 38b. Conditions and reagents: (a) Ac2O and NaOAc; (b) TMSN3, BF3OEt2, and DCM; (c) MeONa and MeOH rt overnight; (d) BnBr, NaH, and DMF overnight; (e) […]
Preparation of 46b and 47b
Compounds 46b (38%) and 47b (45%) were prepared according to the procedure described for compounds 20b and 21b, respectively.
Compound 48b (45%) was prepared according to the procedure described for compound […]
In Vitro Cellular Cytotoxicity Assays […]
MTT (5 mg/mL, 20 µL) was added and incubated for 3 h. […] The absorbance was measured at 570 nm using a Bio-Rad 680 microplate reader. The IC50 values were calculated using GraphPad Prism software. […]
For cytotoxicity assays using the GLUT1 inhibitor 4,6-O-ethylidene-α-D-glucose (EDG), phloretin and the OCT2 inhibitor Ctd., a similar procedure as described above was followed except that MCF-7 cells (3500 cells/well) were seeded on a 96 well plate in 100 µL of RPMI and incubated for 24 h at 37 °C. […] The cytotoxicity profiles of the compounds were evaluated using the MTT assay. […]

A549 = test: MTT cytotoxicity assay, A549; type: cell-based, human; settings: 48 h
Protocol: as §3, §4, §5, §6, §7, §8, §9, §1, §2, §10, §11

SMILES | effect of EDG and phloretin on IC50 values (MCF-7 cells) | IC50 (LNCaP) | IC50 (MCF-7) | IC50 (HeLa) | IC50 (HepG-2) | IC50 (A549R) | IC50 (PC3) | IC50 (human cancer cells) | IC50 (A549) | RF: Resistance factor = IC50(A549R)/IC50(A549) (A549R)
N.N.[Cl][Pt][Cl] [1a, cisplatin, reference compound] | not greatly different | 23.8 ± 0.89 µM | 2.28 ± 0.56 µM | 0.8 ± 0.93 µM | 3.94 ± 0.39 µM | 35.8 ± 1.69 µM | 22.9 ± 1.45 µM | 16.8 to 39.7 µM | 10.8 ± 1.98 µM | –
CC(=O)OC[C@H]1O[C@@H](O[C@H]2[C@H](OC(C)=O)[C@@H](OC(C)=O)[C@H](NC(=O)CCC(=O)[O][Pt-2]([NH3+])([NH3+])([OH])([Cl])[Cl])O[C@@H]2COC(C)=O)[C@H](OC(C)=O)[C@@H](OC(C)=O)[C@H]1OC(C)=O [1c] | – | > 100 µM | 24.2 ± 1.44 µM | 18.2 ± 1.01 µM | 11.6 ± 1.58 µM | 4.26 ± 1.9 µM | > 100 µM | – | 36.4 ± 1.39 µM | 0.12
N.N.[Cl-].[Cl-].[OH-].[OH-].[Pt+4] [2a, reference compound] | – | 50.8 ± 0.79 µM | 27 ± 0.34 µM | 11.4 ± 1.56 µM | 50 ± 1.79 µM | 13.4 ± 2.57 µM | 61.4 ± 0.67 µM | – | > 100 µM | –
CC(=O)OC[C@H]1O[C@@H](O[C@H]2[C@H](OC(C)=O)[C@@H](OC(C)=O)[C@H](NC(=O)CCC(=O)[O][Pt-2]34([OH])([NH2+][C@@H]5CCCC[C@H]5[NH2+]3)[O]C(=O)C(=O)[O]4)O[C@@H]2COC(C)=O)[C@H](OC(C)=O)[C@@H](OC(C)=O)[C@H]1OC(C)=O [2c] | – | 4.7 ± 0.89 µM | 8.29 ± 1.87 µM | 4.05 ± 0.87 µM | 59.3 ± 1.49 µM | 8.37 ± 1.9 µM | > 100 µM | – | 14.5 ± 1.47 µM | 0.58
O=C1[O][Pt]2([NH][C@@H]3CCCC[C@H]3[NH]2)[O]C1=O [3a, oxaliplatin, reference compound] | not greatly different | 16.8 ± 0.34 µM | 5.22 ± 2.78 µM | 3.96 ± 0.75 µM | 6.64 ± 1.79 µM | 39.7 ± 0.69 µM | 39.7 ± 0.76 µM | 16.8 to 39.7 µM | 10.1 ± 1.2 µM | 3.94
CC(=O)OC[C@H]1O[C@@H](NC(=O)CCC(=O)[O][Pt-2]([NH3+])([NH3+])([OH])([Cl])[Cl])[C@H](OC(C)=O)[C@@H](OC(C)=O)[C@@H]1O[C@H]1O[C@H](COC(C)=O)[C@@H](OC(C)=O)[C@H](OC(C)=O)[C@H]1OC(C)=O [3c] | – | > 100 µM | 27.2 ± 1.56 µM | 0.91 ± 0.54 µM | 3.27 ± 1.67 µM | 14.6 ± 1.78 µM | 1.13 ± 0.45 µM | – | 3.38 ± 1.49 µM | 4.33
